Test [1] deals with T1, PCSK9-LDLR (Homo sapiens, UniProt Q8NBP7).
T1 construct: purchased CycLex Co., Nagano, Japan (CircuLex)
The following applies: cited from earlier work; for impairment of PCSK9-LDLR binding vs control: fixed concentration of 100 µM.

Another test concerns LDLR. Further details: method as in 3 sources, ref 48 = [48]; doi:10.1111/jfbc.12757; 48. Lammi C. Zanoni C. Arnoldi A. Aiello G. […] (P3), a peptide from lupin protein, absorbed by Caco-2 cells, modulates cholesterol metabolism in HepG2 cells via SREBP-1 activation J. Food B ||| ref 22 = [22]; doi:10.1016/j.jff.2017.02.009; 22. Zanoni C. Aiello G. Arnoldi A. Lammi C. Investigations on the hypocholesterolaemic activity of […] and LTFPGSAED, two peptides from lupin β-conglutin: Focus on LDLR and PCSK9 pathways J. Fu ||| ref 24 = [24]; PMID 33808034; doi:10.3390/nu13030863; 24. Lammi C. Aiello G. Bollati C. Li J. Bartolomei M. Ranaldi G. Ferruzza S. Fassi E.M.A. Grazioso G. Sambuy Y. Trans-Epithelial Transport, Metabolism, and Biological Activity Assessment of the Multi-. The following applies: cellular level, through modulation of SREBP-2; cited from earlier work.

The next test has as its system PCSK9. Also noted: method as in 3 sources, ref 49 = [49]; PMID 35011066; doi:10.3390/nu14010193; 49. Macchi C. Greco M.F. Ferri N. Magni P. Arnoldi A. Corsini A. Sirtori C.R. Ruscica M. Lammi C. Impact of Soy β-Conglycinin Peptides on PCSK9 Protein Expression in HepG2 Cells Nutrients 2021 14 193 ||| ref 22 = [22]; doi:10.1016/j.jff.2017.02.009; 22. Zanoni C. Aiello G. Arnoldi A. Lammi C. Investigations on the hypocholesterolaemic activity of […] and LTFPGSAED, two peptides from lupin β-conglutin: Focus on LDLR and PCSK9 pathways J. Fu ||| ref 24 = [24]; PMID 33808034; doi:10.3390/nu13030863; 24. Lammi C. Aiello G. Bollati C. Li J. Bartolomei M. Ranaldi G. Ferruzza S. Fassi E.M.A. Grazioso G. Sambuy Y. Trans-Epithelial Transport, Metabolism, and Biological Activity Assessment of the Multi-. The following applies: cellular level, through modulation of HNF-1α; cited from earlier work.

Test [2] has as its target T2, HMG-CoAR (catalytic domain) (Homo sapiens, UniProt P04035).
T2 construct: finally the HMG-CoAR (cata- lytic domain) (2 µL); purchased Sigma-Aldrich
T2 sequence (P04035 426-888 limits assumed): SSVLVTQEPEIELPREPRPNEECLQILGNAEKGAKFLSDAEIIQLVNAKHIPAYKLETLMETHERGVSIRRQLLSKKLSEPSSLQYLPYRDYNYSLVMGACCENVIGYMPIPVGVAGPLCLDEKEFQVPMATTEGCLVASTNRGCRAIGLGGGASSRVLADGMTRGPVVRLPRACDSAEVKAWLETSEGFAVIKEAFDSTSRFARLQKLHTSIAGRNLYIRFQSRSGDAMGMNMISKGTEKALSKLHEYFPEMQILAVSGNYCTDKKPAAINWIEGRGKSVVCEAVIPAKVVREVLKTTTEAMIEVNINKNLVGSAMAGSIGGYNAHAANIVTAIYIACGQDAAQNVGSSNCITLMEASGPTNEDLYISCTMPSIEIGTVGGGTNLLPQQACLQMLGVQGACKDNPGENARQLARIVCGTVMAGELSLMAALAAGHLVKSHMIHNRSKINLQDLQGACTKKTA
The following applies: metabolite; read-out: IC50, HMG-CoAR activity (P5-met); cited from earlier work.

Test [3] deals with T1, PCSK9-LDLR. In words: In vitro PCSK9-LDLR binding assay. The following applies: 0.1–100 µM, LDLR-AB coated plate, 2 h at RT, absorbance 450 nm; four independent experiments in duplicate. The method, then:
Peptides P5 and P5 analogs (0.1–100 µM) were tested using the in vitro PCSK9-LDLR binding assay (CycLex Co., Nagano, Japan) following the manufacture instructions and conditions already optimized. Further details are provided in Supplementary Materials. […]
cLex Co., Nagano, Japan). The peptides (P5, P5-Best, P-H6A, and P5-S7A) were synthe-sized by the company GeneScript (Piscataway, NJ, USA) at >95% purity. The antibody against HMG-CoAR was bought from Abcam (Cambridge, UK). Phenylmethanesulfonyl fluoride (PMSF), Na-orthovanadate inhibitors, and the antibodies against rabbit Ig-horse-radish peroxidase (HRP), mouse Ig-HRP, and SREBP-2 (which recognizes epitope located in a region between 833–1141 and bands at about 132 kDa) were purchased from Santa Cruz Biotechnology Inc. (Santa Cruz, CA, USA). […]
HMG-CoAR Aactivity Assay. […] Subsequently, the samples were mixed and the absorbance at 340 nm read by the microplate reader Synergy H1 (Winooski, VT, USA) at time 0 and 10 min. The HMG-CoAR-dependent oxidation of NADPH and the inhibition properties of peptides were measured by absorbance reduction, which is directly proportional to enzyme activ- […]
(§1) In Vitro PCSK9-LDLR Binding Assay. […] The reaction was stopped with 2.0 M sulfuric acid and the absorbance at 450nm was measured using the Synergy H1 fluorescent plate reader […]

Test [4] addresses T2, HMG-CoAR (catalytic domain). Briefly: HMG-CoAR activity assay. It counts as biochemical. The following applies: 10–500 µM, 37 °C, NADPH oxidation, absorbance 340 nm at 0 and 10 min; four independent experiments in duplicate. The method, then:
The experiments were carried out following the manufacturer instructions and optimized protocol. See Supplementary Materials for further details. […]
cLex Co., Nagano, Japan). The peptides (P5, P5-Best, P-H6A, and P5-S7A) were synthe-sized by the company GeneScript (Piscataway, NJ, USA) at >95% purity. The antibody against HMG-CoAR was bought from Abcam (Cambridge, UK). Phenylmethanesulfonyl fluoride (PMSF), Na-orthovanadate inhibitors, and the antibodies against rabbit Ig-horse-radish peroxidase (HRP), mouse Ig-HRP, and SREBP-2 (which recognizes epitope located in a region between 833–1141 and bands at about 132 kDa) were purchased from Santa Cruz Biotechnology Inc. (Santa Cruz, CA, USA). The antibodies against hepatocyte nu-clear factor 1-alpha (HNF1-alpha) and PCSK9 were bought from GeneTex (Irvine, CA, USA). The inhibitor cocktail Complete Midi was from Roche (Basel, Switzerland). Mini protean TGX pre-cast gel 7.5% and Mini nitrocellulose Transfer Packs were purchased from BioRad (Hercules, CA, USA).
HepG2 Cell Culture Conditions and Treatment. The HepG2 cell line was bought from ATCC (HB-8065, ATCC from LGC Standards, Milan, Italy) and was cultured in DMEM high glucose with stable L-glutamine, supplemented with 10% FBS, 100 U/mL penicillin, 100 µg/mL streptomycin (complete growth medium) with incubation at 37 °C […]
HMG-CoAR Aactivity Assay. The experiments were carried out following the man-ufacturer instructions and optimized protocol. The assay buffer, NADPH, substrate solution, and HMG-CoAR were provided in the HMG-CoAR Assay Kit (Sigma Aldrich SRL, Milan, Italy). […] Subsequently, the samples were mixed and the absorbance at 340 nm read by the microplate reader Synergy H1 (Winooski, VT, USA) at time 0 and 10 min. The HMG-CoAR-dependent oxidation of NADPH and the inhibition properties of peptides were measured by absorbance reduction, which is directly proportional to enzyme activ- […]
as §1

Where [5] appears, read: read-out: IC50, PCSK9-LDLR binding (Pep2-8 analogs).

Read-outs that look alike come from different tables or passages of the source. No end group written: not given here.

T1 sequence (Q8NBP7 153-692): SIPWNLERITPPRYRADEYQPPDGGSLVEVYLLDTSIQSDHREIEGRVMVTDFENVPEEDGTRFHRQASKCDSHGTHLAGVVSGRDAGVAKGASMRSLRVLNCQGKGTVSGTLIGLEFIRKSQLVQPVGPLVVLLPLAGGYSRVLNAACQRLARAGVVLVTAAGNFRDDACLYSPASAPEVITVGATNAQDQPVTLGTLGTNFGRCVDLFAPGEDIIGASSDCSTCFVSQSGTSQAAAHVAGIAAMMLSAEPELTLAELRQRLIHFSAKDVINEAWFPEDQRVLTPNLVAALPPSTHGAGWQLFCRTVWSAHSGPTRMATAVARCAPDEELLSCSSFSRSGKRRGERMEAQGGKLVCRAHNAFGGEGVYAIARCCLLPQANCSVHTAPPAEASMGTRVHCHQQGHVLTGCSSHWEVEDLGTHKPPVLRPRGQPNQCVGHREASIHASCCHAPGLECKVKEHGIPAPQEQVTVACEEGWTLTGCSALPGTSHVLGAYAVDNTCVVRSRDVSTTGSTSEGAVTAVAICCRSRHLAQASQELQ
T1 sequence (Q8NBP7 31-152 partner limits assumed): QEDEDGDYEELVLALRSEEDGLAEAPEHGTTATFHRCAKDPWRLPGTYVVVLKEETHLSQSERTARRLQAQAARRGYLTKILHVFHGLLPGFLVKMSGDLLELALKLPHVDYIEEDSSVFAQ

For the substance “[T4R,W12Y]Pep2-8: analog of peptide Pep2-8 (TVFRSWEEYLDYV)”, the “impairment of PCSK9-LDLR binding vs control” value in the test with PCSK9-LDLR [1] was −93.0%. Further, in the test with PCSK9-LDLR [1] (setting [5]), the IC50 was 14.5 ± 1.3 µM.
Take “LPKHSDAD [Peptide P5-met, breakdown fragment (metabolite) of P5]”: the IC50 with PCSK9-LDLR [1] (metabolite, read-out: IC50, PCSK9-LDLR binding (P5-met)) is 1.7 µM; in test [2], 175 µM. Further, the “LDLR level (P5-met, words)” value with LDLR was “improves the LDLR”. In addition, the “PCSK9 level (P5-met, words)” value in the test with PCSK9 is “reduces PCSK9 levels”.
On to LILPKASDAD [Peptide P5-H6A], for which the IC50 on PCSK9-LDLR [3] came out at 9 µM; in test [4], 74.4 µM.
“[Y9A]Pep2-8: analog of peptide Pep2-8 (TVFTSWEEALDWV)”: the “impairment of PCSK9-LDLR binding vs control” value with PCSK9-LDLR [1] is −69.8%. In the test with PCSK9-LDLR [1] (setting [5]), the IC50 was 27.1 ± 1.2 µM.
Take LYLPKHSDRD [Peptide P5-Best]: the half-inhibitory concentration (IC50) in test [4] was 88.9 µM.
For the substance LILPKHADAD [Peptide P5-S7A], the IC50 at PCSK9-LDLR [3] amounted to 1.45 µM; in test [4] it was 73.8 µM.

One may read the IC50 as the concentration that inhibits the measured activity by half.

(Values after publication PMC8951016, “Computational Design and Biological Evaluation of Analogs of Lupin Peptide P5 Endowed with Dual PCSK9/HMG-CoAR Inhibiting Activity” (Pharmaceutics, 2022).)
